{
  "source": "patent US20230218661A1",
  "about": "“ISOTONIC OR HYPERTONIC SALT-BASED COMPOSITIONS, TREATMENTS, DEVICES, AND ARTICLES FOR DELIVERY OF SAME TO LARYNX” (SENSORY CLOUD, INC., priority 2022, published 2023)",
  "test_system": "post viral cough",
  "assay": "Informal single-subject study of post viral cough exacerbation",
  "conditions": "self-administration, subjective",
  "data": [
    {"smiles": "COc1ccc2c3c1O[C@H]1[C@@H](O)C=C[C@H]4[C@@H](C2)N(C)CC[C@@]341", "note": "[codeine]", "values": [
      {"measurement": "subject-reported relief", "value": "dramatic relief"}
    ]}
  ]
}
